Results reported in patent US9790407B2, “Aqueous detergent soluble coating and adhesive and methods of temporary bonding for manufacturing” (priority 2013, dated 2017).

Key:
[1] = Detergency solubility of carboxylic acid coatings in KOH based system (Example 1); assay type: physicochemical; details: acidic coating, materials dissolved in DMAC
Procedure: (§1) Water solubility is tested and thermal resistance is indicated for each material.

[2] = Water solubility of carboxylic acid coatings (Example 1); details: acidic coating; materials dissolved in n,n-dimethylacetamide (DMAC)
Procedure: as §1

Compound | Detergency (KOH based system) [1] | Water solubility (observed) [2]
O=C(O)c1ccccc1C(=O)O [Phthalic Acid] | Yes | 
O=C(O)c1ccc(C(=O)O)cc1 [Terephthalic acid] | Partial | 

Next, values leading:

Detergency (KOH based system) [1] | Water solubility (observed) [2] | Compound
Partial | Limited/no | O=C(O)/C=C/C(=O)O [Fumaric Acid]
Yes | Limited/no | O=C(O)c1cccc(C(=O)O)c1 [Isophthalic acid]
Yes | Limited/no | O=C(O)c1ccc(O)cc1 [P-hydroxybenzoic acid]
